The molecules below were run against AMPK (assay: AMPK activation, enzyme-linked immunosorbent assay). Settings: EC50 for AMPK activation, ELISA.
Format: biochemical
Summary of the method: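 Read-out: immunodetected kinase activation after compound exposure, run with commercial kit reagents.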

SMILES	EC50
COc1ccc(CN2CCC(NC(=O)c3ccc(C(=O)N4CCC(Oc5ccc(S(C)(=O)=O)cc5)CC4)nc3)CC2)cc1 [Compound 237, N-(1-(4-methoxybenzyl)piperidin-4-yl)-6-(4-(4-(methylsulfonyl)phenoxy)piperidine-1-carbonyl)nicotinamide]	1 to 5 µM
COc1cccc(CN2CCC(NC(=O)c3ccc(C(=O)N4CCC(Oc5ccc(S(C)(=O)=O)cc5)CC4)nc3)CC2)c1 [Compound 238, N-(1-(3-methoxybenzyl)piperidin-4-yl)-6-(4-(4-(methylsulfonyl)phenoxy)piperidine-1-carbonyl)nicotinamide]	1 to 5 µM
N#Cc1ccc(CN2CCC(NC(=O)c3ccc(C(=O)N4CCC(C(=O)c5ccc(N=[N+]=[N-])cc5)CC4)nc3)CC2)cc1 [Compound 240, 6-(4-(4-azidobenzoyl)piperidine-1-carbonyl)-N-(1-(4-cyanobenzyl)piperidin-4-yl)nicotinamide]	< 0.5 µM
COc1cccc(CN2CCC(NC(=O)c3ccc(C(=O)N4CCC(Oc5ccc(S(C)(=O)=O)cc5)CC4)cn3)CC2)c1 [Compound 241, N-(1-(3-methoxybenzyl)piperidin-4-yl)-5-(4-(4-(methylsulfonyl)phenoxy)piperidine-1-carbonyl)picolinamide]	< 0.5 µM
CN1CCN(c2ccc(C(=O)C3CCN(C(=O)c4ccc(C(=O)Nc5ccc(Oc6ccc(F)cc6)nc5)cn4)CC3)cc2)CC1 [Compound 245, N-(6-(4-fluorophenoxy)pyridin-3-yl)-6-(4-(4-(4-methylpiperazin-1-yl)benzoyl)piperidine-1-carbonyl)nicotinamide]	< 0.5 µM
N#Cc1ccc(CN2CCC(NC(=O)c3ccc(C(=O)N4CCC(Oc5ccc(S(=O)(=O)C6CC6)cc5)CC4)nc3)CC2)cc1 [Compound 246, N-(1-(4-cyanobenzyl)piperidin-4-yl)-6-(4-(4-(cyclopropylsulfonyl)phenoxy)piperidine-1-carbonyl)nicotinamide]	< 0.5 µM
O=C(Nc1ccc(Oc2ccc(F)cc2)nc1)c1ccc(C(=O)N2CCC(Oc3ccc(S(=O)(=O)C4CC4)cc3)CC2)nc1 [Compound 247, 6-(4-(4-(cyclopropylsulfonyl)phenoxy)piperidine-1-carbonyl)-N-(6-(4-fluorophenoxy)pyridin-3-yl)nicotinamide]	< 0.5 µM

Second part, the molecule after the results:

EC50	SMILES
< 0.5 µM	CS(=O)(=O)c1ccc(OC2CCN(C(=O)c3ccc(C(=O)NC4CCN(Cc5cc(F)cc(F)c5)CC4)cn3)CC2)cc1 [Compound 236, N-(1-(3,5-difluorobenzyl)piperidin-4-yl)-6-(4-(4-(methylsulfonyl)phenoxy)piperidine-1-carbonyl)nicotinamide]
1 to 5 µM	CS(=O)(=O)c1ccc(OC2CCN(C(=O)c3ccc(C(=O)NC4CCN(Cc5cccc(OC(F)(F)F)c5)CC4)cn3)CC2)cc1 [Compound 239, 6-(4-(4-(methylsulfonyl)phenoxy)piperidine-1-carbonyl)-N-(1-(3-(trifluoromethoxy)benzyl)piperidin-4-yl)nicotinamide]
< 0.5 µM	CS(=O)(=O)c1ccc(OC2CCN(C(=O)c3ccc(C(=O)NC4CCN(Cc5cccc(OC(F)(F)F)c5)CC4)nc3)CC2)cc1 [Compound 242, 5-(4-(4-(methylsulfonyl)phenoxy)piperidine-1-carbonyl)-N-(1-(3-(trifluoromethoxy)benzyl)piperidin-4-yl)picolinamide]
< 0.5 µM	CN1CCN(c2ccc(C(=O)C3CCN(C(=O)c4ccc(C(=O)NC5CCN(Cc6ccc(C#N)cc6)CC5)cn4)CC3)cc2)CC1 [Compound 243, N-(1-(4-cyanobenzyl)piperidin-4-yl)-6-(4-(4-(4-methylpiperazin-1-yl)benzoyl)piperidine-1-carbonyl)nicotinamide]
5 to 10 µM	CN1CCN(c2ccc(C(=O)C3CCN(C(=O)c4ccc(C(=O)NC5CCN(Cc6ccc(OC(F)(F)F)cc6)CC5)cn4)CC3)cc2)CC1 [Compound 244, 6-(4-(4-(4-methylpiperazin-1-yl)benzoyl)piperidine-1-carbonyl)-N-(1-(4-(trifluoromethoxy)benzyl)piperidin-4-yl)nicotinamide]
